Measurements: US5134150A, “Inhibition of the 5-lipoxygenase pathway” (priority 1989, dated 1992)

Key:
[1] = test system: LTC4 production by human monocytes; test: LTC4 production by human monocytes; assay type: cell-based; details: Monocyte; A23187-stimulated human monocytes
Protocol: The compounds of Formula (I) were evaluated for their ability to inhibit the production of LTC4 by human monocytes according to the following assay. Human monocytes were prepared from whole blood supplied by the American Red Cross. The blood was fractinated by a two-step procedure employing sedimentation on Ficoll followed by sedimentation on Percoll. […] Non-adherent cells were removed by washing. […] When drugs were evaluated, they were added to the cells 30 minutes prior to the A23187. Supernatants were collected, […] by centrifugation and stored frozed at -20° C. until assay. The LTC4 content was determined by using a New England Nuclear Leukotriene C-4 (^3 H) RIA Kit as per instructions.

[2] = test system: LTB4 synthesis by peritoneal exudate cells; test: Ex vivo production of LTB4 from peritoneal exudate cells of drug-treated mice; assay type: in vivo, mouse; details: for inhibition at 100 mg/kg: Mus musculus, po, 100 mg/kg p.o.
Excerpt: In the following Examples where mice were used, they were male Balb/c mice (20-28 g), and where rats were used, they were male Lewis rats (180-210 g). All mice and rats were obtained from Charles River Breeding Laboratories, Kingston, N.Y. Within a single experiment, mice and rats were sex and age matched. Auranofin, phenidone, indomethacin, naproxen, and ibuprofen were each used as the free base. The compounds of Formula (I) were used either as the free base or in the appropriate salt form. Levamisole was used as the hydrochloride salt. […] Nordihydroguaiaretic acid (NDGA) was solubilized in dimethylacetamide and diluted with olive oil for subcutaneous administration. Carrageenan-induced peritoneal exudate cells from normal or drug-treated mice were washed and suspended in 2.2 ml of phosphate buffered saline. […] The cell preparation was centrifuged at 1500 rpm for 10 min and the supernatant was extracted using a C-18 silica column. […] A tetrahydrofuran, methanol, water, acetic acid (25:30:45: 0.1) solvent system, adjusted to pH 5.5 with ammonium hydroxide, was used at a flow rate of 0.7 ml/min. Cell derived LTB4 was quantified utilizing standard curves constructed with known amounts of synthetic LTB4.

SMILES: Fc1ccc(-c2nc3n(c2-c2ccncc2)CCS3)cc1 [Compound 1]
- IC50 [1]: 1800 nM
- inhibition at 100 mg/kg ([2]; Experiment 1): 90%
- inhibition at 100 mg/kg ([2]; Experiment 2): 23%
- inhibition at 100 mg/kg ([2]; Experiment 3): 100%
- LTB4 production ex vivo, result in words ([2]; mouse, in vivo): Impairment of LTB4 production
